Results from patent publication US20140256666A1, “ANTIBIOTIC CONJUGATES WITH NONSTEROIDAL ANTI-INFLAMMATORY DRUGS” (Allergan, Inc., priority 2013, published 2014).

System: Human Corneal Epithelial Cells
Experiment: In vitro corneal permeability, cellular uptake and metabolic stability in human corneal epithelial cells
Type: in vitro ADME
Settings: two hour incubation with Human Corneal Epithelial Cells, 50 μM final concentration
Protocol: Clonetics® human corneal epithelial cells (HCEC) were purchased from Lonza Walkersville, Inc. (Walkersville, Md.) pre-seeded on Costar Transwell™ filters in a 24-well plate. Upon receipt HCEC cells were cultured overnight in a 37° C. incubator ([…], 5% CO2) in media provided by the vendor. Permeability studies were performed within 24 hours of receipt. Dosing solutions 100 μM test article (i.e. ester linked hybrids) were prepared in Lonza's proprietary media by diluting a 50 mM stock solution of the test article in dimethyl sulfoxide. The final percentage of solvent in the incubation was less than 1.0% to prevent inhibition of enzymatic activity or effects on the cell membrane. Transepithelial electrical resistance (TEER) was measured for all wells using a voltohmmeter with STX-2 electrodes (World Precision Instruments Inc., Sarasota, Fla.) after adding 100 μL pre-warmed (37° C.) media to the apical compartment. […] A final TEER value was measured and recorded for all wells.
To evaluate human corneal epithelial cell integrity incubations were conducted using 2 μCi/mL ^3H-mannitol for the same 2 hour incubation period with aliquots taken from the basolateral compartment. ^3H-Mannitol samples were analyzed using liquid scintillation counting. […]

## COc1c(N2CCN(C(=O)OCOC(=O)C(C)c3ccc(-c4ccccc4)c(F)c3)C(C)C2)c(F)cc2c(=O)c(C(=O)O)cn(C3CC3)c12 (stereo not shown) [Compound 16, 1-cyclopropyl-6-fluoro-7-{4-[({[2-(2-fluorobiphenyl-4-yl)propanoyl]oxy}methoxy)carbonyl]-3-methylpiperazin-1-yl}-8-methoxy-4-oxo-1,4-dihydroquinoline-3-carboxylic acid]
  cellular uptake of hybrid (parent) and hydrolyzed metabolites (FIG. 1): penetrates into human corneal epithelial cells and is enzymatically hydrolyzed to the individual antibiotic and NSAID
